Consider 23 molecules from patent US7105522B2, “HIV inhibiting pyrazinone derivatives” (Janssen Pharmaceutica, N.V., priority 2001, dated 2006).

Read-outs that look alike come from different tables or passages of the source.

For one series, the system named is HIV-1. Briefly: microbe, parasite or virus in culture. The series is classed as cell-based. The settings on record: for IC50: HIV-infected MT-4 cells, MTT, OD 540 nm, read-out: IC50 (50% inhibitory concentration, dose achieving 50% protection); for SI (selectivity index, ratio of CC50 to IC50): MT-4 cells. The method, then: A rapid, sensitive and automated assay procedure was used for the in vitro evaluation of anti-HIV agents. An […] T4-cell line, MT-4, which was previously shown (Koyanagi et al., Int. J. Cancer, 36, 445–451, 1985) to be highly susceptible to and permissive for HIV infection, served as the target cell line. Inhibition of the HIV-induced cytopathic effect was used as the end point. The viability of both HIV- and mock-infected cells was assessed spectrophotometrically via the in situ reduction of 3-(4,5-dimethylthiazol-2-yl)-2,5-diphenyltetrazolium bromide (MTT). The 50% cytotoxic concentration (CC50 in μM) was defined as the concentration of compound that reduced the absorbance of the mock-infected control sample by 50%. The percent protection achieved by the compound in HIV-infected cells was calculated by the following formula:
[formula] whereby (ODT)HIV is the optical density measured with a given concentration of the test compound in HIV-infected cells; (ODC)HIV is the optical density measured for the control untreated HIV-infected cells; (ODC)MOCK is the optical density measured for the control untreated mock-infected cells; all optical density values were determined at 540 nm. The dose achieving 50% protection according to the above formula was defined as the 50% inhibitory concentration (IC50 in μM). The ratio of CC50 to IC50 was defined as the selectivity index (SI).

Series [1] is described as follows: Cytotoxicity in mock-infected MT-4 cells (MTT). The class given is cell-based. The conditions noted are these: human, OD 540 nm, read-out: CC50 (50% cytotoxic concentration). The method, then: (§1) A rapid, sensitive and automated assay procedure was used for the in vitro evaluation of anti-HIV agents. […] Inhibition of the HIV-induced cytopathic effect was used as the end point. The viability of both HIV- and mock-infected cells was assessed spectrophotometrically via the in situ reduction of 3-(4,5-dimethylthiazol-2-yl)-2,5-diphenyltetrazolium bromide (MTT). […] The percent protection achieved by the compound in HIV-infected cells was calculated by the following formula:
(§2) [formula] whereby (ODT)HIV is the optical density measured with a given concentration of the test compound in HIV-infected cells; (ODC)HIV is the optical density measured for the control untreated HIV-infected cells; (ODC)MOCK is the optical density measured for the control untreated mock-infected cells; all optical density values were determined at 540 nm. […] The ratio of CC50 to IC50 was defined as the selectivity index (SI).

In the next series the test system is mock-infected MT-4 cells. Briefly: Cytotoxicity in mock-infected MT-4 cells (MTT). The series is classed as cell-based. The conditions noted are these: OD 540 nm, read-out: CC50 (50% cytotoxic concentration). The method, then: as §1, §2
Setting [2] is: Human immunodeficiency virus 1, MT4.

Take `Cc1cc(C#N)cc(C)c1Oc1nc(Nc2ccc(C#N)cc2)c(=O)n(C)c1C` [Compound 1, 4-[[6-[(4-cyanophenyl)amino]-4,5-dihydro-3,4-dimethyl-5-oxopyrazinyl]oxy]-3,5-dimethyl-benzonitrile]: in the series with HIV-1 (setting [2]), the IC50 amounted to 0.0063 µM. For the same molecule, in the series on HIV-1, the “SI (selectivity index, ratio of CC50 to IC50)” value is 15849. The CC50 in series [1] worked out at 99.8 µM.

As to `Cc1ccccc1Oc1cn(C)c(=O)c(Nc2ccc(C#N)cc2)n1` [Compound 2, 4-[[3,4-dihydro-4-methyl-6-(2-methylphenoxy)-3-oxopyrazinyl]amino]-benzonitrile], the IC50 in the series with HIV-1 amounted to 0.004 µM. Moreover, the CC50 with mock-infected MT-4 cells came out at 100 µM.

As for `Cc1ccc(Oc2cn(C)c(=O)c(Nc3ccc(C#N)cc3)n2)c(C)c1` [Compound 3, 4-[[6-(2,4-dimethylphenoxy)-3,4-dihydro-4-methyl-3-oxopyrazinyl]amino]-benzonitrile], the IC50 with HIV-1 was 0.0006 µM. Also, in the series with mock-infected MT-4 cells, the CC50 came out at 95.1 µM.

Turning to `Cc1ccccc1Sc1cn(C)c(=O)c(Nc2ccc(C#N)cc2)n1` [Compound 4, 4-[[3,4-dihydro-4-methyl-6-[(2-methylphenyl)thio]-3-oxopyrazinyl]amino]-benzonitrile], the IC50 in the series with HIV-1 (setting [2]) was found to be 0.02 µM. In addition, the “SI (selectivity index, ratio of CC50 to IC50)” value in the series on HIV-1 is given as 5012. Further, in series [1], the CC50 was found to be 100 µM.

Take `Cc1ccccc1Oc1nc(Nc2ccc(Cl)cc2)c(=O)n(C)c1C` [Compound 6, 3-[(4-chlorophenyl)amino]-1,6-dimethyl-5-(2-methylphenoxy)-2(1H)-pyrazinone]: in the series on HIV-1 (setting [2]), the IC50 was 0.1 µM. The “SI (selectivity index, ratio of CC50 to IC50)” value with HIV-1 was found to be 1000. Also, the CC50 in series [1] turned out to be 100 µM.

As to `Cc1ccc(Oc2cn(C)c(=O)c(Nc3ccccc3)n2)c(C)c1` [Compound 7, 5-(2,4-dimethylphenoxy)-1-methyl-3-(phenylamino)-2(1H)-pyrazinone], the IC50 with HIV-1 (setting [2]) stood at 0.2 µM. In addition, in the series on HIV-1, the “SI (selectivity index, ratio of CC50 to IC50)” value was found to be 501. Also, in series [1], the CC50 is 99.9 µM.

Take `Cc1ccc(Sc2nc(Nc3ccc(Cl)cc3)c(=O)n(C)c2C)c(C)c1` [Compound 8, 3-[(4-chlorophenyl)amino]-5-[(2,4-dimethylphenyl)thio]-1,6-dimethyl-2(1H)-pyrazinone]: the IC50 with HIV-1 (setting [2]) was 0.501 µM. Further, the “SI (selectivity index, ratio of CC50 to IC50)” value with HIV-1 is listed as 200. Further, in series [1], the CC50 is 100 µM.

In general, melting point refers to the temperature of the solid-liquid transition. With `Cc1ccc(Oc2cn(Cc3ccccc3)c(=O)c(Nc3ccc(C#N)cc3)n2)c(C)c1` [Compound 9, 4-[[6-(2,4-dimethylphenoxy)-3,4-dihydro-3-oxo-4-(phenylmethyl)pyrazinyl]amino]-benzonitrile], the melting point came to 175 °C. Besides, the IC50 in the series on HIV-1 (setting [2]) was 0.0316 µM. The “SI (selectivity index, ratio of CC50 to IC50)” value in the series with HIV-1 was 3162. For the same molecule, in series [1], the CC50 was 99.9 µM.

Take `Cc1ccc(Oc2cn(C)c(=O)c(Nc3ccc(C(F)(F)F)cc3)n2)c(C)c1` [Compound 11, 5-(2,4-dimethylphenoxy)-1-methyl-3-[[4-(trifluoromethyl)phenyl]amino]-2(1H)-pyrazinone]: the IC50 in the series with HIV-1 (setting [2]) turned out to be 0.501 µM. The “SI (selectivity index, ratio of CC50 to IC50)” value with HIV-1 came to 200. The CC50 in series [1] came to 100 µM.

Consider `Cc1cc(C)c(Sc2cn(C)c(=O)c(Nc3ccc(C#N)cc3)n2)c(C)c1` [Compound 13, 4-[[3,4-dihydro-4-methyl-3-oxo-6-[(2,4,6-trimethylphenyl)thio]pyrazinyl]amino]-benzonitrile], for which, in the series with HIV-1, the IC50 turned out to be 0.0158 µM. Besides, in the series with mock-infected MT-4 cells, the CC50 came to 99.7 µM.

Take `Cc1cc(C)c(Sc2cn(C)c(=O)c(Nc3ccc(Cl)cc3)n2)c(C)c1` [Compound 14, 3-[(4-chlorophenyl)amino]-1-methyl-5-[(2,4,6-trimethylphenyl)thio]-2(1H)-pyrazinone]: the IC50 with HIV-1 (setting [2]) was 0.0794 µM. The “SI (selectivity index, ratio of CC50 to IC50)” value in the series with HIV-1 is recorded as 1259. The CC50 in series [1] was 99.9 µM.

In the case of `Cc1cc(C)c(S(=O)(=O)c2cn(C)c(=O)c(Nc3ccc(C#N)cc3)n2)c(C)c1` [Compound 15, 4-[[3,4-dihydro-4-methyl-3-oxo-6-[(2,4,6-trimethylphenyl)sulfonyl]pyrazinyl]amino]-benzonitrile], the IC50 with HIV-1 was 0.0079 µM. Further, the CC50 in the series with mock-infected MT-4 cells stood at 99.4 µM.

Turning to `Cc1ccc(S(=O)(=O)c2nc(Nc3ccc(C#N)cc3)c(=O)n(C)c2C)c(C)c1` [Compound 16, 4-[[6-[(2,4-dimethylphenyl)sulfonyl]-3,4-dihydro-4,5-dimethyl-3-oxopyrazinyl]amino]-benzonitrile], the IC50 in the series with HIV-1 (setting [2]) came out at 0.0316 µM. Further, the “SI (selectivity index, ratio of CC50 to IC50)” value with HIV-1 stood at 3162. Also, the CC50 in series [1] amounted to 99.9 µM.

Take `Cc1cc(C)c(S(=O)(=O)c2nc(Nc3ccc(C#N)cc3)c(=O)n(C)c2C)c(C)c1` [Compound 17, 4-[[3,4-dihydro-4,5-dimethyl-3-oxo-6-[(2,4,6-trimethylphenyl)sulfonyl]pyrazinyl]amino]-benzonitrile]: the IC50 in the series on HIV-1 (setting [2]) was 0.005 µM. For the same molecule, in the series with HIV-1, the “SI (selectivity index, ratio of CC50 to IC50)” value was found to be 19953. For the same molecule, in series [1], the CC50 turned out to be 99.8 µM.

Take `Cc1cc(C)c([S+]([O-])c2nc(Nc3ccc(C#N)cc3)c(=O)n(C)c2C)c(C)c1` (stereo not shown) [Compound 18]: in the series on HIV-1 (setting [2]), the IC50 stood at 0.004 µM. The “SI (selectivity index, ratio of CC50 to IC50)” value with HIV-1 was 25119. In series [1], the CC50 stood at 100 µM.

Take `Cc1ccccc1Oc1nc(Nc2ccc(C#N)cc2)c(=O)n(C)c1C` [Compound 19, 4-[[3,4-dihydro-4,5-dimethyl-6-(2-methylphenoxy)-3-oxopyrazinyl]amino]-benzonitrile]: in the series on HIV-1 (setting [2]), the IC50 is 0.005 µM. For the same molecule, in the series on HIV-1, the “SI (selectivity index, ratio of CC50 to IC50)” value stood at 19953. The CC50 in series [1] worked out at 99.8 µM.

Regarding `Cc1ccc(Oc2nc(Nc3ccc(C#N)cc3)c(=O)n(C)c2C)c(C)c1` [Compound 20, 4-[[6-(2,4-dimethylphenoxy)-3,4-dihydro-4,5-dimethyl-3-oxopyrazinyl]amino]-benzonitrile], in the series with HIV-1 (setting [2]), the IC50 was determined as 0.0025 µM. In the series with HIV-1, the “SI (selectivity index, ratio of CC50 to IC50)” value came out at 39811. In series [1], the CC50 was found to be 99.5 µM.

Regarding `Cc1ccc(Sc2cn(C)c(=O)c(Nc3ccc(C#N)cc3)n2)c(C)c1` [Compound 21, 4-[[6-[(2,4-dimethylphenyl)thio]-3,4-dihydro-4-methyl-3-oxopyrazinyl]amino]-benzonitrile], the IC50 in the series on HIV-1 worked out at 0.005 µM. In the series with mock-infected MT-4 cells, the CC50 turned out to be 99.8 µM.

In the case of `Cc1ccc(Oc2cn(C)c(=O)c(Nc3ccc(Cl)cc3)n2)c(C)c1` [Compound 22, 3-[(4-chlorophenyl)amino]-5-(2,4-dimethylphenoxy)-1-methyl-2(1H)-pyrazinone], the IC50 in the series with HIV-1 (setting [2]) was determined as 0.02 µM. The “SI (selectivity index, ratio of CC50 to IC50)” value with HIV-1 stood at 5012. For the same molecule, in series [1], the CC50 came out at 100 µM.

As for `Cc1ccc(Oc2nc(Nc3ccc(Cl)cc3)c(=O)n(C)c2C)c(C)c1` [Compound 23, 3-[(4-chlorophenyl)amino]-5-(2,4-dimethylphenoxy)-1,6-dimethyl-2(1H)-pyrazinone], the IC50 with HIV-1 (setting [2]) amounted to 0.0501 µM. The “SI (selectivity index, ratio of CC50 to IC50)” value in the series on HIV-1 is listed as 1995. The CC50 in series [1] came out at 99.9 µM.

Regarding `Cc1ccccc1Sc1nc(Nc2ccc(C#N)cc2)c(=O)n(C)c1C` [Compound 24, 4-[[3,4-dihydro-4,5-dimethyl-6-[(2-methylphenyl)thio]-3-oxopyrazinyl]amino]-benzonitrile], the IC50 in the series on HIV-1 (setting [2]) was 0.0251 µM. The “SI (selectivity index, ratio of CC50 to IC50)” value with HIV-1 is 3981. For the same molecule, in series [1], the CC50 worked out at 99.9 µM.

`Cc1ccccc1Sc1nc(Nc2ccc(C#N)cc2)c(=O)n(Cc2ccccc2)c1C` [Compound 27, 4-[[6-[(2-methylphenyl)thio]-5-methyl-3,4-dihydro-3-oxo-4-(phenylmethyl)pyrazinyl]amino]-benzonitrile]: the melting point worked out at 195 °C.

In turn, `Cc1ccccc1Sc1nc(Nc2ccc(C#N)cc2)c(=O)[nH]c1C` [Compound 28, 4-[[3,4-dihydro-5-methyl-6-[(2-methylphenyl)thio]-3-oxopyrazinyl]amino]-benzonitrile] yielded a melting point of 290 to 291 °C.
